The molecules below were run against human Nav 1.8 (Homo sapiens, UniProt Q9Y5Y9) (assay: E-VIPR assay detecting and measuring Nav inhibition (HEK cells expressing truncated human Nav 1.8)). Conditions: in the Absence of Human Serum in the E-VIPR Assay; read-out: IC50.
human Nav 1.8, sequence (Q9Y5Y9 whole entry, looked up, the tested form may be a part): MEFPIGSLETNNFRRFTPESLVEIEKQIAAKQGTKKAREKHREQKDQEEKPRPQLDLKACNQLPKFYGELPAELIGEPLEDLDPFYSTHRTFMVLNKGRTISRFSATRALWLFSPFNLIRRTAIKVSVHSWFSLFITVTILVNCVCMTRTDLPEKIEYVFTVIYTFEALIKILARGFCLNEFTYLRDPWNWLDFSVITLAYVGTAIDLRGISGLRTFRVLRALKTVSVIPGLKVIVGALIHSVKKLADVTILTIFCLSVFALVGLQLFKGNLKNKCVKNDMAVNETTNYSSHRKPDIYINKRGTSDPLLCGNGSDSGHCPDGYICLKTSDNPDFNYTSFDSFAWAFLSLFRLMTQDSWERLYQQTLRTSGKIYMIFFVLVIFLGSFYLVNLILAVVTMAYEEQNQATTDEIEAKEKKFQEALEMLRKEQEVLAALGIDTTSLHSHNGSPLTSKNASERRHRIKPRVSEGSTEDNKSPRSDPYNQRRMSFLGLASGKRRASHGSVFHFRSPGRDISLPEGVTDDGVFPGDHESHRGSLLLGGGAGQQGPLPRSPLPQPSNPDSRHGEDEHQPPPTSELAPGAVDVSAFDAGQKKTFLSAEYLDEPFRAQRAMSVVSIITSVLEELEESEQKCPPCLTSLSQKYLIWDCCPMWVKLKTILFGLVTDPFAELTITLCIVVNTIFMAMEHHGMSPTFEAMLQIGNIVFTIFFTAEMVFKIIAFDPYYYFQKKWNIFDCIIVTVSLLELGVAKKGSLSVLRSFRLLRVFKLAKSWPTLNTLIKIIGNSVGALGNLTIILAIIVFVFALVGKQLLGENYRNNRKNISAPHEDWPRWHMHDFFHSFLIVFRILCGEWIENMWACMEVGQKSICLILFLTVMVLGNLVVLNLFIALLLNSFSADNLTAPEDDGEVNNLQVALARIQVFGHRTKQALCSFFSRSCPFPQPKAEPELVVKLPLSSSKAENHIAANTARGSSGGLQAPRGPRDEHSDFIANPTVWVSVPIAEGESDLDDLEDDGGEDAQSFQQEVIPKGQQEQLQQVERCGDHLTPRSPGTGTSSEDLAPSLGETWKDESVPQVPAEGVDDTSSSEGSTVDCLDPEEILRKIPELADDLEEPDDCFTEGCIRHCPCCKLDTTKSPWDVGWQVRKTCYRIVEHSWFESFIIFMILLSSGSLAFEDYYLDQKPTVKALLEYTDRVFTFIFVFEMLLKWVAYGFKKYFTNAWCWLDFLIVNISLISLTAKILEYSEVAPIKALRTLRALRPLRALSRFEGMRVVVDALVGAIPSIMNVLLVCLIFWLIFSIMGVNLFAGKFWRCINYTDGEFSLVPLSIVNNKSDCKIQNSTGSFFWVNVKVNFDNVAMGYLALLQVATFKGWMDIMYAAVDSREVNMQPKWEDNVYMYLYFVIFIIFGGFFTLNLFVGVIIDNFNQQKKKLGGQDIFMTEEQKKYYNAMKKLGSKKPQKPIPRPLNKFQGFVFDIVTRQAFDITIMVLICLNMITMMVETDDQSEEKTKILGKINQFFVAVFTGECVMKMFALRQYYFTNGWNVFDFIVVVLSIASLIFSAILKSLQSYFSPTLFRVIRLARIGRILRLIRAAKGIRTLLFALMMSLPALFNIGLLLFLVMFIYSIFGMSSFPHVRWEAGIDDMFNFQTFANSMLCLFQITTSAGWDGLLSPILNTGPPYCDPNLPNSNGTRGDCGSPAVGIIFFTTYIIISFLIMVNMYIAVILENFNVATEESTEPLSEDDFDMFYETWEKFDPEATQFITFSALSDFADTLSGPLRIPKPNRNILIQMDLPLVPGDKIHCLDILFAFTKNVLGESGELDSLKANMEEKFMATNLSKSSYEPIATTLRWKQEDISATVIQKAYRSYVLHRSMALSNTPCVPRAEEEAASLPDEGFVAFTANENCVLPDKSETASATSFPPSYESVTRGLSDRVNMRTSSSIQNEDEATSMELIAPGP
Type: cell-based
Description: Sodium ion channels are voltage-dependent proteins that can be activated by inducing membrane voltage changes by applying electric fields. The electrical stimulation instrument and methods of use, referred to as E-VIPR, are described in International Publication No. WO 2002/008748 A3 and C.-J. Huang et al. Characterization of voltage-gated sodium channel blockers by electrical stimulation and fluorescence detection of membrane potential, 24 Nature Biotech. 439-46 (2006), both of which are incorporated by reference in their entirety. The instrument comprises a microtiter plate handler, an optical system for exciting the coumarin dye while simultaneously recording the coumarin and oxonol emissions, a waveform generator, a current- or voltage-controlled amplifier, and parallel electrode pairs that are inserted into assay plate wells. Under integrated computer control, this instrument passes user-programmed electrical stimulus protocols to cells within the wells of the microtiter plate.
16-20 hours prior to running the assay on E-VIPR, HEK cells expressing a truncated form of human Nav 1.8 with full channel activity were seeded into microtiter 384-well plates, pre-coated with matrigel, at a density of 25,000 cells per well. 2.5-5% KIR2.1 Bacmam virus was added to the final cell suspension before seeding into cell plates. HEK cells were grown in Dulbecco's Modified Eagle's Medium (DMEM) supplemented with 10% FBS (Fetal Bovine Serum, qualified; Sigma #F4135), 1% NEAA (Non-Essential Amino Acids, Gibco #11140), 1% HEPES (Gibco #15630), 1% Pen-Strep (Penicillin-Streptomycin; Gibco #15140) and 5 μg/ml Blasticidin (Gibco #R210-01). Cells were expanded in vented cap cell culture flasks, with 90-95% humidity and 5% CO2.
Human Serum (HS, Millipore #S1P1-01KL, or Sigma SLBR5469V and SLBR5470V as a 50%/50% mixture, for 25% assay final concentration)
Bath1 Buffer: • Sodium Chloride 160 mM (9.35 g/L), Potassium Chloride, 4.5 mM (0.335 g/L), Glucose 10 mM (1.8 g/L), Magnesium Chloride (Anhydrous) 1 mM (0.095 g/L), Calcium Chloride 2 mM (0.222 g/L), HEPES 10 mM (2.38 g/L) in water.
Na/TMA Cl Bath1 Buffer: • Sodium Chloride 96 mM (5.61 g/L), Potassium Chloride 4.5 mM (0.335 g/L), Tetramethylammonium (TMA)-Cl 64 mM (7.01 g/L), Glucose 10 mM (1.8 g/L), Magnesium Chloride (Anhydrous) 1 mM (0.095 g/L), Calcium Chloride 2 mM (0.222 g/L) HEPES 10 mM (2.38 g/L) in water.
Hexyl Dye Solution (2× concentration): • Bath1 Buffer containing 0.5% β-cyclodextrin (made fresh prior to each use, Sigma #C4767), 8 μM CC2-DMPE and 2 μM DiSBAC6(3). The solution was made by adding 10% Pluronic F127 stock equal to combined volumes of CC2-DMPE and DiSBAC6(3). The order of preparation was first mix Pluronic and CC2-DMPE, then add DiSBAC6(3), then while vortexing add Bath1/β-Cyclodextrin.
Compound Loading Buffer (2×concentration): Na/TMA Cl Bath1 Buffer containing HS (omitted in experiments run in the absence of human serum (HS)) 50%, VABSC-1 1 mM, BSA 0.2 mg/ml (in Bath-1), KCl 9 mM, DMSO 0.75%.
Assay Protocol (7 Key Steps): • 1) To reach the final concentration in each well, 400 nL of each compound was pre-spotted (in neat DMSO) into polypropylene compound plates at 250×desired final concentration from an intermediate stock concentration of 0.075 mM, in an 11 point dose response, 3-fold dilution, resulting in a top dose of 300 nM final concentration in the cell plate. Vehicle control (neat DMSO), and positive control (an established Nav1.8 inhibitor, 25 μM final in assay in DMSO) were added manually to the outermost columns of each plate respectively. The compound plate was backfilled with 45 μL per well of Compound Loading Buffer resulting in a 250 fold dilution of compound following a 1:1 transfer of compound into the cell plate (see Step 6). Final DMSO concentration for all wells in the assay was 0.625% (0.75% DMSO was supplemented to the Compound Loading Buffer for a final DMSO concentration of 0.625%). […]
In the case of COc1cc(C(F)(F)F)ncc1[C@H]1[C@H](C(=O)Nc2ccnc(C(N)=O)c2)O[C@@](C)(C(F)(F)F)[C@H]1C (racemic) [compound 139], the IC50 is reported as over 1 µM.

Same assay, conditions: in the Presence of Human Serum in the E-VIPR Assay
For COc1c([C@@H]2[C@@H](C(=O)Nc3ccnc(C(N)=O)c3)O[C@@](C)(C(F)(F)F)[C@@H]2C)ccc(F)c1F (racemic) [Compound 33, rac-(2S,3R,4R,5R)-4-[[3-(3,4-difluoro-2-methoxy-phenyl)-4,5-dimethyl-5-(trifluoromethyl)tetrahydrofuran-2-carbonyl]amino]pyridine-2-carboxamide], the IC50 was 0.1 to 1 µM. COc1c([C@@H]2[C@@H](C(=O)Nc3ccnc(C(N)=O)c3)O[C@@](C)(C(F)(F)F)[C@H]2C)ccc(F)c1F (racemic) [Compound 34, rac-(2S,3R,4S,5R)-4-[[3-(3,4-difluoro-2-methoxy-phenyl)-4,5-dimethyl-5-(trifluoromethyl)tetrahydrofuran-2-carbonyl]amino]pyridine-2-carboxamide] was tested, and the IC50 was over 1 µM. With COc1c([C@@H]2[C@@H](C)[C@](C)(C(F)(F)F)O[C@H]2C(=O)Nc2ccnc(C(N)=O)c2)ccc(F)c1F (racemic) [Compound 35, rac-(2R,3S,4R,5R)-4-[[3-(3,4-difluoro-2-methoxy-phenyl)-4,5-dimethyl-5-(trifluoromethyl)tetrahydrofuran-2-carbonyl]amino]pyridine-2-carboxamide] the IC50 was 0.1 to 1 µM.

Same assay, conditions: in the Presence of Human Serum in the E-VIPR Assay; read-out: IC50
With COc1cccc(F)c1[C@@H]1C[C@](C)(C(F)(F)F)O[C@H]1C(=O)Nc1ccnc(C(N)=O)c1 (racemic) [Compound 79, rac-(2R,3S,5R)-4-[[3-(2-fluoro-6-methoxy-phenyl)-5-methyl-5-(trifluoromethyl)tetrahydrofuran-2-carbonyl]amino]pyridine-2-carboxamide] the IC50 was over 1 µM. Molecule COc1c([C@H]2[C@@H](C(=O)Nc3ccnc(C(N)=O)c3)OC(C)(C)[C@@H]2C)ccc(F)c1F (racemic) [Compound 100, rac-(2S,3S,4R)-4-[[3-(3,4-difluoro-2-methoxy-phenyl)-4,5,5-trimethyl-tetrahydrofuran-2-carbonyl]amino]pyridine-2-carboxamide] has an IC50 of over 1 µM. For C[C@H]1[C@@H](c2ccc(F)c(F)c2OC(F)F)[C@H](C(=O)Nc2ccnc(C(N)=O)c2)O[C@@]1(C)C(F)(F)F (racemic) [Compound 115, rac-(2R,3S,4S,5R)-4-[[3-[2-(difluoromethoxy)-3,4-difluoro-phenyl]-4,5-dimethyl-5-(trifluoromethyl)tetrahydrofuran-2-carbonyl]amino]pyridine-2-carboxamide], the IC50 was under 0.01 µM. For CC[C@H]1[C@@H](c2ccc(F)c(F)c2OC)[C@H](C(=O)Nc2ccnc(C(N)=O)c2)O[C@@]1(C)C(F)(F)F (racemic) [Compound 116, rac-(2R,3S,4S,5R)-4-[[3-(3,4-difluoro-2-methoxy-phenyl)-4-ethyl-5-methyl-5-(trifluoromethyl)tetrahydrofuran-2-carbonyl]amino]pyridine-2-carboxamide], the IC50 was under 0.01 µM. C[C@@H]1[C@H](c2ccc(F)cc2OC(F)F)[C@@H](C(=O)Nc2ccnc(C(N)=O)c2)O[C@@]1(C)C(F)(F)F (racemic) [compound 28] gave an IC50 of 0.01 to 0.1 µM. COc1c([C@H]2C[C@@](C)(C(F)(F)F)O[C@@H]2C(=O)Nc2ccnc(C(N)=O)c2)ccc(F)c1Cl (relative stereo) [Compound 20, rel-(2S,3R,5S)-4-[[3-(3-chloro-4-fluoro-2-methoxy-phenyl)-5-methyl-5-(trifluoromethyl)tetrahydrofuran-2-carbonyl]amino]pyridine-2-carboxamide] gave an IC50 of over 1 µM. For COc1c([C@H]2C[C@@](C)(C(F)(F)F)O[C@@H]2C(=O)Nc2ccnc(C(N)=O)c2)ccc(F)c1Cl (relative stereo) [Compound 22, rel-(2R,3S,5R)-4-[[3-(3-chloro-4-fluoro-2-methoxy-phenyl)-5-methyl-5-(trifluoromethyl)tetrahydrofuran-2-carbonyl]amino]pyridine-2-carboxamide], the IC50 was 0.01 to 0.1 µM. COc1c([C@@H]2[C@H](C)[C@H](C(F)(F)F)O[C@H]2C(=O)Nc2ccnc(C(N)=O)c2)ccc(F)c1F (relative stereo) [Compound 24, rel-(2R,3S,4S,5R)-4-[[3-(3,4-difluoro-2-methoxy-phenyl)-4-methyl-5-(trifluoromethyl)tetrahydrofuran-2-carbonyl]amino]pyridine-2-carboxamide] showed an IC50 of over 1 µM. For COc1c([C@@H]2[C@H](C)[C@H](C(F)(F)F)O[C@H]2C(=O)Nc2ccnc(C(N)=O)c2)ccc(F)c1F (relative stereo) [Compound 25, rel-(2S,3R,4R,5S)-4-[[3-(3,4-difluoro-2-methoxy-phenyl)-4-methyl-5-(trifluoromethyl)tetrahydrofuran-2-carbonyl]amino]pyridine-2-carboxamide], the IC50 was under 0.01 µM. For COc1c([C@@H]2C[C@](C)(C(F)(F)F)O[C@H]2C(=O)Nc2cc[n+]([O-])c(C(N)=O)c2)ccc(F)c1F (relative stereo) [Compound 54, rel-(2R,3S,5R)-4-[[3-(3,4-difluoro-2-methoxy-phenyl)-5-methyl-5-(trifluoromethyl)tetrahydrofuran-2-carbonyl]amino]-1-oxido-pyridin-1-ium-2-carboxamide], the IC50 was 0.1 to 1 µM. COc1cc(F)ccc1[C@@H]1C[C@](C)(C(F)(F)F)O[C@@H]1C(=O)Nc1ccnc(C(N)=O)c1 (relative stereo) [Compound 70, rel-(2S,3S,5R)-4-[[3-(4-fluoro-2-methoxy-phenyl)-5-methyl-5-(trifluoromethyl)tetrahydrofuran-2-carbonyl]amino]pyridine-2-carboxamide] gave an IC50 of over 1 µM. COc1cc(F)ccc1[C@H]1[C@H](C(=O)Nc2ccnc(C(N)=O)c2)O[C@@](C)(C(F)(F)F)[C@H]1C (single isomer, unassigned) [Compound 3a] gave an IC50 of over 1 µM. With COc1cc(F)ccc1[C@@H]1[C@@H](C(=O)Nc2ccnc(C(N)=O)c2)O[C@](C)(C(F)(F)F)[C@@H]1C (single isomer, unassigned) [Compound 3b] the IC50 was under 0.01 µM. With C[C@H]1[C@@H](c2ccc(F)c(F)c2OC(F)F)[C@H](C(=O)Nc2ccc(F)c(C(N)=O)c2)O[C@@]1(C)C(F)(F)F (single isomer, unassigned) [Compound 14] the IC50 was over 1 µM. In the case of C[C@H]1[C@@H](c2ccc(F)c(F)c2OC(F)F)[C@H](C(=O)Nc2ccc(F)c(C(N)=O)c2)O[C@@]1(C)C(F)(F)F (single isomer, unassigned) [Compound 15], the IC50 is reported as under 0.01 µM. For CNC(=O)c1cc(NC(=O)[C@H]2O[C@](C)(C(F)(F)F)[C@H](C)[C@@H]2c2ccc(F)cc2OC(F)F)ccn1 (single isomer, unassigned) [Compound 29], the IC50 was over 1 µM. Molecule CNC(=O)c1cc(NC(=O)[C@@H]2O[C@@](C)(C(F)(F)F)[C@@H](C)[C@H]2c2ccc(F)cc2OC(F)F)ccn1 (single isomer, unassigned) [Compound 30] has an IC50 of 0.1 to 1 µM. C[C@@H]1[C@H](c2ccc(F)cc2OC(F)F)[C@@H](C(=O)Nc2ccc(F)c(C(N)=O)c2)O[C@]1(C)C(F)(F)F (single isomer, unassigned) [Compound 31] was tested, and the IC50 was over 1 µM. C[C@H]1[C@@H](c2ccc(F)cc2OC(F)F)[C@H](C(=O)Nc2ccc(F)c(C(N)=O)c2)O[C@@]1(C)C(F)(F)F (single isomer, unassigned) [Compound 32] showed an IC50 of under 0.01 µM.

From patent publication US11919887B2, “Substituted tetrahydrofurans as modulators of sodium channels” (Vertex Pharmaceuticals Incorporated, priority 2019, dated 2024)
